The numbers were not newly measured in patent publication US20160143861A1, “COMPOSITIONS COMPRISING HYDROXYTYROSOL, RESVERATROL, LYCOPENE, FLAVANOLS, AND/OR FLAVONOIDS AND USE THEREOF” (SPECIALTY NUTRITION GROUP, INC., priority 2013, published 2016), which cites them from elsewhere.

Structures are written as SMILES.

Regarding `OCCc1ccc(O)c(O)c1` [Hydroxytyrosol], the “time of peak plasma concentration after ingestion” value is 5 to 10 min.
